Measurements reported in patent US5124342A, “4-hydroxythiazoles as 5-lipoxygenase inhibitors” (Abbott Laboratories, priority 1990, dated 1992).
pIC50: −log10 of the molar value.

Each compound was assayed against T1, 5-lipoxygenase (Rattus norvegicus, UniProt P12527) (assay: 5-Lipoxygenase inhibition, 20,000×g supernatant of homogenized RBL-1 cells, radiolabeled arachidonic acid). Details: 5-lipoxygenase from RBL-1 20,000 × g supernatant; read-out: IC50 (95% CL).
T1 construct: homogenized RBL-1 cells; endogenous in cells; host or cells: RBL-1 cells (20,000×g supernatant of homogenate)
T1 sequence (P12527 1-673): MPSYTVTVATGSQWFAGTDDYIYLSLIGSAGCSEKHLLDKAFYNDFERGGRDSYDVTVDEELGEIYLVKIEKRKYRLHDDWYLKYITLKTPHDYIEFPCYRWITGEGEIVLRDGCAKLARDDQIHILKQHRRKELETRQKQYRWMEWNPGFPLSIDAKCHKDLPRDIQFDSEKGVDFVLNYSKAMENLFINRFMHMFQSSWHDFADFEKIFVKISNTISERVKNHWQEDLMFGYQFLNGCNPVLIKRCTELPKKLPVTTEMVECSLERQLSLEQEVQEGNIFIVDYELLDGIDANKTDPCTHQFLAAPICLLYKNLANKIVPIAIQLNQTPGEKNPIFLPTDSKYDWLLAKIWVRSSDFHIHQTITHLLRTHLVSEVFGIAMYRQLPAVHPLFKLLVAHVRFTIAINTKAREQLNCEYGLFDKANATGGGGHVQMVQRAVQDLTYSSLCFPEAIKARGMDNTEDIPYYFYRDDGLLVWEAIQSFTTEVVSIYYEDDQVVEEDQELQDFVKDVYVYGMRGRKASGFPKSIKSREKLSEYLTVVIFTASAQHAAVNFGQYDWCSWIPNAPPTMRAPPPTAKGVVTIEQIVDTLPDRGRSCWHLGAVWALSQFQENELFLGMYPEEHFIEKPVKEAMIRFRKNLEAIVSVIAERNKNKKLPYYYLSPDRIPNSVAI
Assay type: biochemical
Description: Proc., Fed. Am. Soc. Exp. Biol. 1984, 43, […]. Reactions were initiated by the addition of radiolabeled arachidonic acid and terminated by acidification and ether extraction. Reaction products were separated from nonconvented substrate by thin layer chromatography and measured by liquid scintillation spectroscopy. Inhibition of 5-lipoxygenase activity was calculated as the ratio of the amounts of product formed in the presence and absence of inhibitor.
Compound `Cc1sc(-c2ccccc2)nc1O` [Example 31, 2-Phenyl-4-hydroxy-5-methylthiazole] has a pIC50 of 6.02. Compound `CCOC(=O)CCC(=O)Oc1nc(-c2ccccc2)sc1-c1ccccc1` [Example 53, 2-Phenyl-4-ethyl succinyloxy-5-phenylthiazole] has a pIC50 of 6.12. For `Cc1cccc(-c2nc(O)c(C)s2)c1Cl` [Example 29, 2-(2-Chloro-3-methylphenyl)-4-hydroxy-5-methylthiazole], the pIC50 was 6.09. `Cc1ccc(-c2nc(O)c(C)s2)cc1` [Example 33, 2-(4-Methylphenyl)-4-hydroxy-5-methylthiazole] gave a pIC50 of 6.20. Compound `Cc1sc(-c2ccc(C#N)cc2)nc1O` [Example 20, 2-(4-Cyanophenyl)-4-hydroxy-5-methylthiazole] has a pIC50 of 6.15. In the case of `Cc1sc(-c2ccc(Br)cc2)nc1O` [Example 10, 2-(4-Bromophenyl)-4-hydroxy-5-methylthiazole], the pIC50 was 6.29. In the case of `CCCc1sc(-c2ccccc2)nc1O` [Example 36, 2-Phenyl-4-hydroxy-5-propylthiazole], the pIC50 was 6.24. `Cc1sc(-c2cccc(F)c2)nc1O` [Example 25, 2-(3-Fluorophenyl)-4-hydroxy-5-methylthiazole] showed a pIC50 of 6.18. For `CC(=O)c1ccc(-c2nc(O)c(C)s2)cc1` [Example 18, 2-(4-Acetylphenyl)-4-hydroxy-5-methylthiazole], the pIC50 was 6.05. `Cc1sc(-c2ccc(F)cc2)nc1O` [Example 9, 2-(4-Fluorophenyl)-4-hydroxy-5-methylthiazole] showed a pIC50 of 6.46. Work on `Oc1nc(-c2ccccc2)sc1CCc1ccccc1` [Example 38, 2-Phenyl-4-hydroxy-5-phenethylthiazole] yielded a pIC50 of 6.16. In the case of `COC(=O)c1ccc(-c2nc(OC(C)=O)c(C)s2)cc1` [Example 60, 2-(4-Carbomethoxyphenyl)-4-acetoxy-5-methylthiazole], the pIC50 was 6.16. With `CCc1sc(-c2ccccc2)nc1O` [Example 35, 2-Phenyl-4-hydroxy-5-ethylthiazole] the pIC50 was 6.08. `Oc1nc(-c2ccccc2)sc1-c1ccccc1` [Example 34, 2-Phenyl-4-hydroxy-5-phenylthiazole] was tested, and the pIC50 was 6.28. For `CCCc1sc(-c2ccccc2)nc1OC(=O)OCC` [Example 54, 2-Phenyl-[4-(carboethoxy)oxy]-5-propylthiazole], the pIC50 was 6.04. Work on `COC(=O)c1ccc(-c2nc(O)c(C)s2)cc1` [Example 17, 2-(4-Carbomethoxyphenyl)-4-hydroxy-5-methylthiazole] yielded a pIC50 of 6.06. With `Cc1sc(-c2ccc(Cl)cc2)nc1O` [Example 11, 2-(4-Chlorophenyl)-4-hydroxy-5-methylthiazole] the pIC50 was 6.24. Compound `CCOC(=O)c1ccc(-c2nc(O)c(C)s2)cc1` [Example 23, 2-(4-Carboethoxyphenyl)-4-hydroxy-5-methylthiazole] has a pIC50 of 6.15. With `Cc1sc(-c2cccc(Br)c2)nc1O` [Example 26, 2-(3-Bromophenyl)-4-hydroxy-5-methylthiazole] the pIC50 was 6.32. Compound `Cc1sc(-c2ccccc2F)nc1O` [Example 24, 2-(2-Fluorophenyl)-4-hydroxy-5-methylthiazole] has a pIC50 of 6.30. `CCCCc1sc(-c2ccccc2)nc1OC(C)=O` [Example 67, 2-Phenyl-4-acetoxy-5-butylthiazole] was tested, and the pIC50 was 6.02. `Cc1sc(-c2ccc(C(=O)OCCc3ccccc3)cc2)nc1O` [Example 13, 2-(4-Carbo-2-phenethoxyphenyl)-4-hydroxy-5-methylthiazole] was tested, and the pIC50 was 6.01. For `COc1ccc2nc(-c3nc(O)c(C)s3)sc2c1` [Example 6, 2-[2-(6-Methoxybenzothiazolyl)]-4-hydroxy-5-methylthiazole], the pIC50 was 6.05.

Same assay, conditions: at 0.3 μM; RBL-1 20,000 × g supernatant; read-out: % Inhibition at μM Conc.
`COc1ccc(-c2nc(O)c(-c3ccccc3)s2)cc1` [Example 43, 2-(4-Methoxyphenyl)-4-hydroxy-5-phenylthiazole] showed an inhibition at 0.3 µM of 88%. With `Oc1nc(-c2cccnc2)sc1-c1ccccc1` [Example 41, 2-(3-Pyridyl)-4-hydroxy-5-phenylthiazole] the inhibition at 0.3 µM was 83%.

Same assay, conditions: at 0.4 μM; RBL-1 20,000 × g supernatant; read-out: % Inhibition at μM Conc.
Work on `CC(=O)Oc1nc(-c2ccccc2)sc1-c1ccccc1` [Example 50, 2-Phenyl-4-acetoxy-5-phenylthiazole] yielded an inhibition at 0.4 µM of 88%. Work on `Oc1nc(-c2ccc(F)cc2)sc1-c1ccccc1` [Example 47, 2-(4-Fluorophenyl)-4-hydroxy-5-phenylthiazole] yielded an inhibition at 0.4 µM of 82%. In the case of `CCOc1ccc(-c2nc(O)c(-c3ccccc3)s2)cc1` [Example 48, 2-(4-Ethoxyphenyl)-4-hydroxy-5-phenylthiazole], the inhibition at 0.4 µM was 77%. `Cc1ccc(-c2nc(O)c(-c3ccccc3)s2)cc1` [Example 46, 2-(4-Methylphenyl)-4-hydroxy-5-phenylthiazole] was tested, and the inhibition at 0.4 µM was 91%.

Same assay, conditions: at 0.5 μM; RBL-1 20,000 × g supernatant; read-out: % Inhibition at μM Conc.
`CC(=O)Oc1nc(-c2ccc(C)cc2)sc1-c1ccccc1` [Example 62, 2-(4-Methylphenyl)-4-acetoxy-5-phenylthiazole] gave an inhibition at 0.5 µM of 93%.

Same assay, conditions: at 0.75 μM; RBL-1 20,000 × g supernatant; read-out: % Inhibition at μM Conc.
With `CC(=O)Oc1nc(-c2ccc(-c3ccccc3)cc2)sc1-c1ccccc1` [Example 65, 2-Biphenyl-4-acetoxy-5-phenylthiazole] the inhibition at 0.75 µM was 82%.

Same assay, conditions: at 1 μM; RBL-1 20,000 × g supernatant; read-out: % Inhibition at μM Conc.
`CCCCCc1nc(OC(C)=O)c(CCC)s1` [Example 68, 2-Pentyl-4-acetoxy-5-propylthiazole] gave an inhibition at 1 µM of 79%.
